Assay [1] concerns the target T1, ActA (Streptococcus mutans, UniProt Q8DVT1).
T1 construct: gene SMU_386; recombinant His-tagged from pET28a, E. coli BL21(DE3), nickel purified
T1 sequence (Q8DVT1 1-144): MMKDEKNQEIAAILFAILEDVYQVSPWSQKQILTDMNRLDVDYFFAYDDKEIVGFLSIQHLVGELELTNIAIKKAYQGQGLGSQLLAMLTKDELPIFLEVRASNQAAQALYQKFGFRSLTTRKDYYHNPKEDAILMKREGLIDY
Description: in vitro acylation of LDH, anti-Kla Western blot. The class given is biochemical. The note with it: acyl acceptor recombinant LDH; pH 7.5, 10 mM MgCl2, 37°C, 3 h.

In assay [2] the target is T1, ActA. Nature of the assay: in vitro acylation of LDH, anti-Kac Western blot. In kind it is biochemical. The note with it: acyl acceptor recombinant LDH; pH 7.5, 10 mM MgCl2, 37°C, 3 h.

The text below walks through data of PMC13221243, “Crosstalk Between Lysine Lactylation and Acetylation Regulates Lactate Dehydrogenase in Streptococcus mutans” (Genomics, Proteomics & Bioinformatics, 2025).

With `CC(O)C(=O)SCCNC(=O)CCNC(=O)[C@H](O)C(C)(C)COP(=O)(O)OP(=O)(O)OC[C@H]1O[C@@H](n2cnc3c(N)ncnc32)[C@H](O)[C@@H]1OP(=O)(O)O` (some centres unmarked) [La-CoA], the “in vitro acylation of LDH, anti-Kla Western blot” value at ActA [1] is “However, ActA significantly increased the levels of Kla and Kac in LDH enzymatically”. On to `CC(=O)SCCNC(=O)CCNC(=O)[C@H](O)C(C)(C)COP(=O)(O)OP(=O)(O)OC[C@H]1O[C@@H](n2cnc3c(N)ncnc32)[C@H](O)[C@@H]1OP(=O)(O)O` [Ac-CoA], for which the “in vitro acylation of LDH, anti-Kac Western blot” value on ActA [2] was “However, ActA significantly increased the levels of Kla and Kac in LDH enzymatically”.
